Test results from US6812223B2, “Crystalline glucosamine sulfate metal salts and processes for preparing the same” (Nicholas Piramal India Limited, priority 2000, dated 2004).

Assay: Estimation of metal content in the mixed glucosamine sulphate metal salt (Inductively Coupled Plasma Method)
Type: physicochemical
Settings: ICP; for Potassium content: measured at 766.491 nm; for Sodium content: measured at 589.592 nm
Protocol: Estimation of Metal Content in the Mixed Glucosamine Sulphate Metal Salt The sodium content in the mixed glucosamine sulphate sodium salt or the potassium content in the mixed glucosamine sulphate potassium salt respectively is estimated using Inductively Coupled Plasma Method. The sodium content was measured at 589.592 nm and the potassium content was measured at 766.491 nm. [table]

Substance	Potassium content [%]	Potassium content (listed as compound I (M+K)) [%]	Sodium content [%]	Sodium content (listed as compound I (M=Na)) [%]
Glucosamine Sulphate Potassium Salt (Low Potassium Content) [Example 2]	7.16	7.16		
Glucosamine Sulphate Sodium Salt (Low Sodium Content) [Example 1]			4.22	4.22
